Experimental data from patent publication US20090131513A1, “ANTI-INFLAMMATORY MODALITIES” (Novogen Research Pty Ltd., priority 2005, published 2009).

Experiments:
[1] = test system: UV irradiation-induced skin oedema; assay: Murine model of UV irradiation-induced skin oedema; type: in vivo, mice (Skh:hr-1 albino); conditions: for Increase in skin thickness (mean ± SD, ×0.01 mm): topical 0.2 ml of 20 μM at 30 min, 2 h, 4 h; for skin oedema, in words: 48 hrs, topical
Excerpt: Groups of 4-5 female Skh:hr-1 albino mice were irradiated with 1×3 MEdD (minimal edematous dose) of solar simulated UV radiation (SSUV). Solar-simulated ultraviolet radiation (SSUV) was provided by a planar bank of 6 UVA tube (Hitachi 40 W F40 T 10/BL, black light) and one UVB tube (Philips TL 40 W/12 RS) with radiation filtered through a sheet of 0.125 mm cellulose acetate (Eastman Chemical Products, Kingport, Term, USA) to give 2.96×10-4 W/cm2 UVA and 1.59×10-5 W/cm2 UVB. During irradiation, the cages were rotated below the lights to reduce the variation in radiation intensity in different positions.
Either test compound (0.2 ml of a 20 μM solution) or vehicle (propylene glycol/ethanol/water 1:2:1) was applied to the irradiated dorsal skin at 30 min, 2 h and 4 h post-irradiation. Dorsal skin fold measurements were made with a spring micrometer prior to and at 24 hr and 48 h post-UV exposure. The difference in skin thickness pre- and post-exposure to UVR was calculated for each mouse, and the differences examined between test compound and vehicle control were analysed using an unpaired two-tailed t test.

[2] = test system: inflammed rat air pouches (serum-treated zymozan); assay: Rat air pouch assay; type: in vivo, rats (Dark Agouti); conditions: 0.5 ml of 100 μM into pouch; for Polymorphs in tissue sections (per 100 squares): 4 h; for Leucocytes in lavage fluid (×10^−7): lavage at 4 h
Procedure: An alternative assay used to measure anti-inflammatory efficacy is the air pouch model which involves the repeated subcutaneous injection of air into the dorsum of rats followed 24 h later by the intrapouch injection of an inflammatory stimulus (Gilroy et al. 1998).
Air pouches were raised on the dorsum of female Dark Agouti rats, approximately 7 weeks of age. To promote the formation of a cellular membrane lining the inside of each pouch, the pouches were maintained by re-inflating on days 2 and 5 after the initial injection of air. On re-inflation, the pouch was first deflated to ensure the needle was positioned correctly, before being re-inflated with 2 mL of sterile air. Using this protocol, the pouches remained inflated until use on day 7, when they were injected with 0.5 ml of either test compound at 100 μM or vehicle control. After 15 min, air pouches were injected with serum-treated zymozan (STZ-500 μg). Lavage of the air pouch (4×2 ml lavages) was performed at 4 h and leucocytes counted, after which the rats were killed, the air pouch excised and processed in formalin for histology. The sections were blinded to the person counting. Using a graticule with 100 squares and the 40× objective, the number of polymorphs were counted in the pouch lining at 10 different and non-adjacent sites. Group sizes were 5-6 rats. Data were analysed for statistical significance within each experiment and using an unpaired t test.

female BALB/c mice = assay: Absence of gastrointestinal toxicity, gavage for 10 days; type: in vivo; conditions: 5 mg/kg via gavage for 10 days
Procedure: Compound 2 at 5 mg/kg (n=3) or vehicle (PEG 400:PBS1:1; n=2) was administered via gavage to female BALB/c mice for 10 days. […] Histology of cecum and colon were normal.
The diastereoisomeric mixture of Compounds 3a and 3b in PEG 400:PBS1:1 was administered to 7 week old female BALB/c mice (n=8) by gavage at 20 mg/kg daily for 10 days. There was no vehicle control group for comparison.
Compound 4 at 5 mg/kg (n=3) or vehicle (n=2, PEG:PBS 1:1) was administered via gavage to female BALB/c mice for 10 days. […] Histology of cecum and colon were normal.

[3] = test system: inflammed rat air pouches (serum-treated zymozan); assay: Rat air pouch assay; type: in vivo, rats (Dark Agouti); conditions: At 1 mM application
[4] = test system: contractile response of the aortic ring to noradrenaline; assay: Vasodilatory activity in the rat aortic ring assay; parameters: species or system rat (Sprague-Dawley); conditions: test compound 1 μg/ml
Procedure: The vasodilatory capacity of test compounds was examined ex vivo using the rat aortic ring assay.
Male Sprague-Dawley rats (250±50 g) were euthanized with 80% CO2 and 20% O2. The thoracic aorta was excised and quickly mounted in organ-baths as described (Chin-Dusting et al. 2001). Full concentration-contractile curves were obtained to noradrenaline ([…]) with and without test compounds delivered at a concentration of 1 μg/ml. Experiments were repeated in n=5 different rings from 5 different animals. Only one compound at any one concentration was tested on any one ring from any one animal. Sigmoidal dose response curves were fitted for the data and the logEC50 calculated (Prism 4, GraphPad Software). The difference in these values between the presence and absence of test compound was calculated using a two-tailed paired t test. The effects of β-oestrodiol and vehicle alone were examined as a positive and negative control respectively.

Sprague Dawley rats = assay: Oral toxicity of Compound 1 administered daily for 11 days; type: in vivo; conditions: 300 mg/kg and 1000 mg/kg oral daily for 11 days in CMC 0.1%
Procedure: Oral toxicity of Compound 1 when administered daily for 11 days was investigated. Compound 1 in CMC 0.1% as administered at the very high doses of 300 mg/kg and the limit dose of 1000 mg/kg to groups of four Sprague Dawley rats (two of each gender). Vehicle was administered to a third group.
(§1) The formulation of Compound 1 in CMC 0.1% was stable over a seven day period at both 4° C., 25° C. and 40° C. Fresh batches of Compound 1 were supplied after day seven. Bodyweights were measured immediately before administration, then at day eight and again at culling on day 12. All rats were observed daily for signs of toxicity throughout the experimental period. At necropsy, gross examination of the external surface of the body, all orifices and the thoracic and abdominal cavities and their contents was carried out. Liver, kidney, adrenals, spleen and gonads were weighed. Terminal hematology, serum biochemistry and histology of the liver, spleen and bone marrow was done.

[5] = Stability of formulation in CMC 0.1%; type: physicochemical; conditions: seven day period, 4° C., 25° C. and 40° C.
Procedure: as §1

## Oc1ccc(C2COc3c(ccc(O)c3O)C2O)cc1 (stereo not drawn) [Compound 2]
[1]; 24 hrs post-irradiation
  Increase in skin thickness (mean ± SD, ×0.01 mm): 68 ± 24 ×0.01 mm
[1]; 48 hrs post-irradiation
  Increase in skin thickness (mean ± SD, ×0.01 mm): 105 ± 22 ×0.01 mm
[1]
  skin oedema, in words: significantly inhibited
[2]
  Polymorphs in tissue sections (per 100 squares): 14.3 ± 5.7 per 100 squares
  Leucocytes in lavage fluid (×10^−7): 0.68 ± 0.36 ×10^−7
Female BALB/c mice
  adverse clinical signs: no adverse clinical signs
  body weight changes versus vehicle: similar
  gross pathological changes at necropsy: no gross pathological changes
  histology of cecum and colon: normal
[3]
  number of polymorphs in the tissue sections, in words: suppressed the number of polymorphs

## O=C1c2cc(Cl)c(O)cc2OCC1c1ccc(O)cc1 (stereo not drawn) [Compound 4]
[1]; 24 hrs post-irradiation
  Increase in skin thickness (mean ± SD, ×0.01 mm): 63 ± 22 ×0.01 mm
[1]; 48 hrs post-irradiation
  Increase in skin thickness (mean ± SD, ×0.01 mm): 145 ± 11 ×0.01 mm
[2]
  Polymorphs in tissue sections (per 100 squares): 23.4 ± 8.8 per 100 squares
  Leucocytes in lavage fluid (×10^−7): 1.00 ± 0.38 ×10^−7
Female BALB/c mice
  adverse clinical signs: no adverse clinical signs
  body weight changes versus vehicle: similar
  gross pathological changes at necropsy: no gross pathological changes
  histology of cecum and colon: normal
[3]
  number of polymorphs in the tissue sections, in words: suppressed the number of polymorphs

## O=C1c2ccc(O)c(Br)c2OCC1c1ccc(O)cc1 (stereo not drawn) [Compound 1, 3-(4-hydroxyphenyl)-7-hydroxy-8-bromo-chroman-4-one]
[1]; 24 hrs post-irradiation
  Increase in skin thickness (mean ± SD, ×0.01 mm): 54 ± 20 ×0.01 mm
[1]; 48 hrs post-irradiation
  Increase in skin thickness (mean ± SD, ×0.01 mm): 91 ± 7.6 ×0.01 mm
[1]
  skin oedema, in words: significantly inhibited
[2]
  Polymorphs in tissue sections (per 100 squares): 31.0 ± 7.25 per 100 squares
  Leucocytes in lavage fluid (×10^−7): 0.89 ± 0.42 ×10^−7
[4]
  contractile response (logEC50) of the aortic ring to noradrenaline compared with vehicle: significantly inhibited
Sprague Dawley rats
  evidence of toxicity: no evidence of toxicity of any kind
[5]
  stability of the formulation: stable
